Source: patent US5037830A, “Novel thiouracyl derivatives, pharmaceutical compositions containing them and process for preparing same” (Richter Gedeon Vegyeszeti Gyar RT, priority 1989, dated 1991)
Read-outs that look alike come from different tables or passages of the source.

Tests used:
[1] = tested on: gastric ulcer after pylorus ligature; experiment: Gastric ulcer-inhibiting effect in rats operated according to Shay's method; type: in vivo, female OFA rats; settings: Rattus norvegicus, po, 18 h, p.o.
Procedure: Female OFA rats starved for 24 hours weighing 150 to 160 g were used. (The animals were allowed to drink water ad libitum). The animals were orally treated with the substance to be tested and after 1 hour laparotomy and pylorus ligature according to Shay [Gastroenterology 5, 43 (1945)] were performed under ether anaesthesia. After 18 hours the number and size of ulcers formed on the membranaceous part of the stomach were examined under microscope. The evaluation was made in relation to the control group and the ED50 values were determined. The sizes of the ulcers were expressed as score values from 0.5 to 32.

[2] = tested on: necrosis induced by ethanol containing hydrochloric acid; experiment: Cytoprotective effect (modified Robert's test); type: in vivo; settings: for Bleedings, change: vs control; for ED50: po, cytoprotection
Procedure: The modified Robert's test [Gastroenterology 17, 761 (1979)] was used. The necrotizing agent (100 ml of abs. ethanol containing 2 ml of concentrated hydrochloric acid) was orally administered in a volume of 0.5 ml/100 g by 30 minutes after giving the compound to be tested. (12 animals were used for each dose.) After 1 hour the animals were killed by ether and the bleedings on the glandular part of their stomach were evaluated.

[3] = tested on: spontaneous gastric acid secretion; experiment: Gastric acid secretion-inhibiting effect according to Shay's method; type: in vivo, female OFA rats; settings: for Gastric acid, change / Gastric juice, change: vs control; for Gastric acid, treated: titration with 0.1N NaOH; for ED50: po, gastric acid, Shay rat; for inhibitor effect on gastric acid secretion, in words: compared with reference drugs
Procedure: After being starved for 24 hours, female OFA rats weighing 130 to 160 g were orally treated with the compounds to be tested. (15 animals were used for each dose.) One hour later laparotomy and pylorus ligature were carried out under ether anaesthesia according to Shay [Gastroenterology 5, 43 (1945)]. After 5 hours the animals were killed by an overdose of ether, their stomaches were excised and the volume and acid content of the gastric juice were determined. The acid was measured by titration with 0.1N NaOH, by using Topfer's indicator.

[4] = tested on: reserpine-induced gastric ulcer; experiment: Inhibition of the reserpine-induced gastric ulcer; type: in vivo, female OFA rats; settings: Rattus norvegicus, po, 18 h, p.o., reserpine 5 mg/kg s.c.
Procedure: After being starved for 24 hours, female OFA rats were orally treated with the compounds to be tested and then subcutaneously (s.c.) with 5 mg/kg of reserpine after 1 hour. After 18 hours the animals were killed and their stomach were examined under microscope. The evaluation was performed as described under the preceding paragraph 1.

[5] = read-out: ED50 related to the number of ulcers
[6] = read-out: ED50 related to the occurrance of ulcers
[7] = read-out: ED50 related to the severity of ulcers

## COc1ccc2[nH]c([S+]([O-])Cc3ncc(C)c(OC)c3C)nc2c1 (centres unmarked) [Omeprazole, 2-[[(3,5-dimethyl-4-methoxypyridin-2-il)-methyl]-sulfinyl]-5-methoxy-1H-benzimidazole, reference compound]
[1]; [5]
  ED50: 9.2 mg/kg
[1]; [6]
  ED50: 17 mg/kg
[1]; [7]
  ED50: 11 mg/kg
[2]; 5 mg/kg p.o.
  Bleedings, treated: 61.8 mm
  Bleedings, change: -27.1%
[2]; 10 mg/kg p.o.
  Bleedings, treated: 46.0 mm
  Bleedings, change: -45.8%
[2]; 20 mg/kg p.o.
  Bleedings, treated: 14.2 mm
  Bleedings, change: -83.8%
[2]
  ED50: 10 mg/kg
[3]; 5 mg/kg p.o.
  Gastric juice, treated: 5.40 mL
  Gastric acid, change: -35.4%
  Gastric juice, change: -21.5%
  Gastric acid, treated: 1.75 mL
[3]; 10 mg/kg p.o.
  Gastric juice, treated: 5.47 mL
  Gastric acid, change: -37.3%
  Gastric juice, change: -20.5%
  Gastric acid, treated: 1.70 mL
[3]; 20 mg/kg p.o.
  Gastric juice, treated: 4.30 mL
  Gastric acid, change: -74.7%
  Gastric juice, change: -38.4%
  Gastric acid, treated: 0.71 mL
[3]
  ED50: 10.5 mg/kg
[4]; [5]
  ED50: 17 mg/kg
[4]; [6]
  ED50: 24 mg/kg
[4]; [7]
  ED50: 20 mg/kg

## CCN(C)c1ccccc1CSc1nc(C)cc(=O)[nH]1 [Example 10]
[3]; 10 mg/kg p.o.
  Gastric juice, treated: 5.23 mL
  Gastric acid, change: -32.5%
  Gastric juice, change: -13.7%
  Gastric acid, treated: 1.89 mL
[3]; 20 mg/kg p.o.
  Gastric juice, treated: 5.23 mL
  Gastric acid, change: -60.3%
  Gastric juice, change: -18.0%
  Gastric acid, treated: 1.23 mL
[3]; 40 mg/kg p.o.
  Gastric juice, treated: 5.39 mL
  Gastric acid, change: -87.3%
  Gastric juice, change: -24.8%
  Gastric acid, treated: 0.45 mL
[3]
  inhibitor effect on gastric acid secretion, in words: equiactive to the NC-1300 reference drug
  ED50: 15.5 mg/kg

## CN(C)c1ccccc1CSc1nc(-c2ccccc2)cc(=O)[nH]1 [Example 5, 2-(2-dimethylamino-benzyl)thio-6-phenyl-4(3H)-pyrimidinone]
[2]; 5 mg/kg p.o.
  Bleedings, treated: 73.5 mm
  Bleedings, change: -26.3%
[2]; 10 mg/kg p.o.
  Bleedings, treated: 47.6 mm
  Bleedings, change: -52.3%
[2]; 20 mg/kg p.o.
  Bleedings, treated: 24.3 mm
  Bleedings, change: -81.7%
[2]
  ED50: 9.9 mg/kg
[3]; 5 mg/kg p.o.
  Gastric juice, treated: 5.77 mL
  Gastric acid, change: -24.9%
  Gastric juice, change: -17.3%
  Gastric acid, treated: 2.11 mL
[3]; 10 mg/kg p.o.
  Gastric juice, treated: 5.51 mL
  Gastric acid, change: -62.0%
  Gastric juice, change: -19.6%
  Gastric acid, treated: 2.06 mL
[3]; 20 mg/kg p.o.
  Gastric juice, treated: 4.33 mL
  Gastric acid, change: -86.3%
  Gastric juice, change: -37.1%
  Gastric acid, treated: 0.37 mL
[3]; 40 mg/kg p.o.
  Gastric juice, treated: 6.80 mL
  Gastric acid, change: -94.5%
  Gastric juice, change: +6.8%
  Gastric acid, treated: 0.18 mL
[3]
  inhibitor effect on gastric acid secretion, in words: more active then either of both reference drugs
  ED50: 8.1 mg/kg
